Results on one molecule are retold here after US11058775B2, “Insulin dimer-incretin conjugates” (Merck Sharp & Dohme Corp., priority 2016, dated 2021).

The target of the assay is T1, human GCGR (Homo sapiens, UniProt P47871).
T1 construct: expressed in transfected cells; grown under Blasticidin and Hygromycin selection
The assay is described as follows: cAMP activity assay, cells expressing human GCGR. It counts as cell-based. The settings on record: ratio of hGCGR EC50 to hGLP1R EC50, Table 7.

T1 sequence (P47871 26-477): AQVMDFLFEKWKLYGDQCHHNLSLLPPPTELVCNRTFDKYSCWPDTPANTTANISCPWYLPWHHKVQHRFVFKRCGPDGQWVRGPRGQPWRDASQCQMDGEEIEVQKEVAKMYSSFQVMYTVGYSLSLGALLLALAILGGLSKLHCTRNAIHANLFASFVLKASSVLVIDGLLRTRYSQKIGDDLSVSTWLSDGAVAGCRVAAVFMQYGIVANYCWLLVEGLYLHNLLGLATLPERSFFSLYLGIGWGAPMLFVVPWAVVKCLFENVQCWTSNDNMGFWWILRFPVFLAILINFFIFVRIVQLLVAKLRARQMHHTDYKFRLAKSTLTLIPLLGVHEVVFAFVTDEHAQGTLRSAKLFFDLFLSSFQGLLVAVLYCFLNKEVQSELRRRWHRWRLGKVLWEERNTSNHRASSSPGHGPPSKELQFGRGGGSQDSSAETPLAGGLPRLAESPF
Procedure: Activity of the peptides and the conjugates at the Glucagon receptor (GCGR) and GLP-1 receptor (GLP1R) may be measured in a cAMP activity assay as follows.
Peptides are dissolved in 100% DMSO and serially diluted to generate 10 point titrations. The peptide solutions are then transferred into 384-well assay plates (150 nL/well). Assay ready frozen cells expressing human GIPR, GLP1R or human GCGR are suspended in growth media consisting of DMEM medium (GIBCO), 10% FBS (GIBCO), 1×NEAA(GIBCO), 1×P/S (GIBCO), 10 μg/mL Blasticidin (GIBCO) and 200 μg/mL Hygromycin (GIBCO). […] The cell suspensions (15 μL) are then added to the assay plates containing the peptide solutions (30,000 cells/well for human GCGR; 10,000 cells/well for human GLP1R and 15,000 cells/well for human GIPR). The cells are incubated for one hour at room temperature in the dark.
Production of cAMP may be determined using HitHunter™ cAMPXS kits (DiscoverX) following the manufacturer's protocol. The plates are incubated for overnight at room temperature in the dark. Luminescence may be measured using an EnVision Multilabel plate reader (Perkin Elmer). Native GIP, GLP-1 and Glucagon (Bachem) may be used as control peptides. EC50 values may be calculated using uses a 4 parameter logistic fit based on the Levenberg-Marquardt algorithm.

In the case of `CC(C)C[C@H](NC(=O)[C@H](Cc1ccc(O)cc1)NC(=O)[C@H](CCCCN)NC(=O)[C@H](CO)NC(=O)[C@H](CCCCN)NC(=O)[C@H](CC(=O)O)NC(=O)[C@H](CO)NC(=O)[C@@H](NC(=O)[C@H](Cc1ccccc1)NC(=O)[C@@H](NC(=O)CNC(=O)[C@H](CCC(N)=O)NC(=O)[C@@H](CO)NC(=O)[C@@H](N)Cc1c[nH]cn1)[C@@H](C)O)[C@@H](C)O)C(=O)N[C@@H](CC(=O)O)C(=O)N[C@@H](CCC(=O)O)C(=O)N[C@@H](CCCNC(=N)N)C(=O)N[C@@H](C)C(=O)N[C@@H](C)C(=O)N[C@@H](CCC(N)=O)C(=O)N[C@@H](CC(=O)O)C(=O)N[C@@H](Cc1ccccc1)C(=O)N[C@H](C(=O)N[C@@H](CCCCN=[N+]=[N-])C(=O)N[C@@H](Cc1c[nH]c2ccccc12)C(=O)N[C@@H](CC(C)C)C(=O)N[C@@H](CC(C)C)C(=O)N[C@@H](CC(=O)O)C(=O)N[C@H](C(N)=O)[C@@H](C)O)C(C)C` [PEP88], the GCGR/GLP1R ratio worked out at 0.97.
